This note sets out measurements from patent US8134004B2, “Substituted N-bicyclicalkyl bicycliccarboxyamide compounds” (Pfizer Inc., priority 2006, dated 2012).

Where a name gives a salt, the structure may show the parent alone.

This test concerns the target human VR1 (Homo sapiens, UniProt Q8NER1). Kind of test: Human VR1 antagonist assay (Ca2+ imaging). It is filed as cell-based. The settings on record: Ca2+ imaging assay using human VR1 highly expressing cells, fura-2/AM; agonist stimulation (capsaicin 300 nM or acid pH 5.8), not given. The source says: Human VR1 Antagonist Assay
VR1 antagonistic activity can be determined by the Ca^2+ imaging assay using human VR1 highly expressing cells. The cells that highly express human VR1 receptors are obtainable from several different conventional methods. The one standard method is cloning from human Dorsal Root Ganglion (DRG) or kidney according to the methods such as described in the journal article; Nature, 389, pp 816-824, 1997. Alternatively VR1 receptors highly expressing human keratinocytes are also known and published in the journal article (Biochemical and Biophysical Research Communications, 291, pp 124-129, 2002). […] Furthermore, the method to up regulate human VR1 gene, which is usually a silent gene or don't produce detectable level of VR1 receptors, is also available to obtain propriety cells. Such genetic modification method was described in detail; Nat. Biotechnol., 19, pp 440-445, 2001.
The cells that express human VR1 receptors were maintained in culture flask at 37° C. in an environment containing 5% CO2 until use in the assay. The intracellular Ca^2+ imaging assay to determine VR1 antagonistic activities were done by following procedures.
The culture medium was removed from the flask and fura-2/AM fluorescent calcium indicator was added to the flask at a concentration of 5 μM in the medium. The flask was placed in CO2 incubator and incubated for 1 hour. Then the cells expressing the human VR1 receptors were detached from the flask follow by washing with phosphate buffer saline, PBS(−) and re-suspended in assay buffer. The 80 μl of aliquot of cell suspension (3.75×10^5 cells/ml) was added to the assay plate and the cells were spun down by centrifuge (950 rpm, 20° C., 3 minutes).
The compounds of the examples were tested in the Human VR1 antagonist assay described above.
The capsaicin-induced changes in the intracellular calcium concentration were monitored using FDSS 6000 (Hamamatsu Photonics, Japan), a fluorometric imaging system. The cell suspension in Krebs-Ringer HEPES (KRH) buffer (115 mM NaCl, 5.4 mM KCl, 1 mM MgSO4, 1.8 mM CaCl2, 11 mM D-Glucose, 25 mM HEPES, 0.96 mM Na2HPO4, pH 7.3) were pre-incubated with varying concentrations of the test compounds or KRH buffer (buffer control) for 15 minutes at room temperature under the dark condition. Then capsaicin solution, which gives 300 nM in assay mixture, was automatically added to the assay plate by the FDSS 6000.
The Acid-induced changes in the intracellular calcium concentration were monitored using FDSS 6000 (Hamamatsu Photonics, Japan), a fluorometric imaging system. The cell suspension in resting buffer (HBSS supplemented with 10 mM HEPES, pH 7.4) were pre-incubated with varying concentrations of the test compounds or resting buffer (buffer control) for 15 minutes at room temperature under the dark condition. The cells were automatically added the stimulating solution (HBSS supplemented with MES, final assay buffer pH5.8) by the FDSS 6000.
The monitoring of the changes in the fluorescence signals (λex=340 nm/380 nm, λem=510-520 nm) was initiated at 1 minute prior to the addition of capsaicin solution or acidic buffer and continued for 5 minute.

Chain of human VR1 (Q8NER1 whole entry): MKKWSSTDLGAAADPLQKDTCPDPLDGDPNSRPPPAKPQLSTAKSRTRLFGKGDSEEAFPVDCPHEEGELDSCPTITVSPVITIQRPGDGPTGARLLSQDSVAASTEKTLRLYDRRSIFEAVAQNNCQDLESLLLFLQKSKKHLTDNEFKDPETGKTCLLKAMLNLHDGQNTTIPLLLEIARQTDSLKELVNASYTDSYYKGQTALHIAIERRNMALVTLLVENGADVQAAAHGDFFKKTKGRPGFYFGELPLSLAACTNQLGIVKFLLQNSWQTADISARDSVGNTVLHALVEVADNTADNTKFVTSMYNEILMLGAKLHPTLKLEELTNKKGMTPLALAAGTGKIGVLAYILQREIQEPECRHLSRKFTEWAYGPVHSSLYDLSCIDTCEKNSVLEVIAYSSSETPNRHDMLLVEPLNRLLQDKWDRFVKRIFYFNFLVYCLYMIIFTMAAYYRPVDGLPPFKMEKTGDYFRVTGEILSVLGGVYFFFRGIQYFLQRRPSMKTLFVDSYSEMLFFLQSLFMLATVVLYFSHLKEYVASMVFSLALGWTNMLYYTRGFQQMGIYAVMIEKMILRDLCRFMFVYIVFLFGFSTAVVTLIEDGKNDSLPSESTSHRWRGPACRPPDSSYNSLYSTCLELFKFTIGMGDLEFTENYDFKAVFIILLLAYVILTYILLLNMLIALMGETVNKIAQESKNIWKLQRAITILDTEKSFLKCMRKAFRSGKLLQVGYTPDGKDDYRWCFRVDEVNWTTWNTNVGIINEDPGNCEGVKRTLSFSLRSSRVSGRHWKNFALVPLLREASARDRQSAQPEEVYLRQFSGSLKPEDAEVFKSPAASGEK

Consider `CC(NC(=O)c1ccc2cc(C(C)(C)C)ccc2c1)c1ccc2c(c1)CC(=O)N2` (stereo not shown) [Example A4, 6-tert-butyl-N-[1-(2-oxo-2,3-dihydro-1H-indol-5-yl)ethyl]-2-naphthamide], for which the IC50 is 0.0857 µM.

`CC(C)(C)c1ccc2nc(C(=O)NCc3ccnc4ccccc34)ccc2c1` [Example B3, 6-tert-butyl-N-(quinolin-4-ylmethyl)quinoline-2-carboxamide] returned a half-maximal inhibitory concentration (IC50) of 0.117 µM.

Consider `CC(C)(c1ccc2cc(C(=O)NCc3cccc4cnccc34)ccc2n1)C(F)(F)F` [Example C7, N-(isoquinolin-5-ylmethyl)-2-(2,2,2-trifluoro-1,1-dimethylethyl) quinoline-6-carboxamide], for which the IC50 was determined as 0.027 µM.

The compound `CC(NC(=O)c1ccc2nc(C(C)(C)C(F)(F)F)ccc2c1)c1ccc2c(c1)CC(=O)N2` (stereo not shown) [Example C10, N-[1-(2-oxo-2,3-dihydro-1H-indol-5-yl)ethyl]-2-(2,2,2-trifluoro-1,1-dimethylethyl)quinoline-6-carboxamide] gave an IC50 of 0.274 µM.

Regarding `Cc1ccc2nccc(CNC(=O)c3ccc4nc(C(C)(C)C(F)(F)F)ccc4c3)c2c1` [Example C14, N-[(6-methylquinolin-4-yl)methyl]-2-(2,2,2-trifluoro-1,1-dimethylethyl)quinoline-6-carboxamide], the IC50 stood at 0.422 µM.

`CC(NC(=O)c1ccc2cc(C(C)(C)C)ccc2c1)c1ccc2[nH]ncc2c1` (stereo not shown) [Example A5, 6-tert-butyl-N-[1-1H-indazole-5-ylethyl]-2-naphthamide] had an IC50 of 0.0164 µM.

For `CC(O)(c1ccc2cc(C(=O)NCc3cccc4cnccc34)ccc2n1)C(F)(F)F` (stereo not shown) [Example C17, N-(isoquinolin-5-ylmethyl)-2-(2,2,2-trifluoro-1-hydroxy-1-methylethyl)quinoline-6-carboxamide], the concentration for half-maximal inhibition (IC50) was 0.176 µM.

With `CC(NC(=O)c1ccc2nc(C(C)(C)C(F)(F)F)ccc2c1)c1ccc2[nH]ncc2c1` (stereo not shown) [Example C4, N-[1-1H-indazole-5-ylethyl]-2-(2,2,2-trifluoro-1,1-dimethylethyl)quinoline-6-carboxamide], the IC50 stood at 0.023 µM.

For the compound `C[C@@H](NC(=O)c1ccc2cc(C(C)(C)C)ccc2n1)c1ccnc2ccccc12` (single isomer, unassigned) [Example B7, 6-tert-butyl-N-(1-quinolin-4-ylethyl)quinoline-2-carboxamide], the IC50 was 0.132 µM.

The compound `CC(C)(c1ccc2cc(C(=O)NCc3ccnc4ccccc34)ccc2n1)C(F)(F)F` [Example C5, N-(quinolin-4-ylmethyl)-2-(2,2,2-trifluoro-1,1-dimethylethyl) quinoline-6-carboxamide] registered an IC50 of 0.072 µM.

Turning to `C[C@@H](NC(=O)c1ccc2nc(C(C)(O)C(F)(F)F)ccc2c1)c1ccnc2ccccc12` (stereo partly drawn) [Example C15, N-[(1R)-1-quinolin-4-ylethyl]-2-(2,2,2-trifluoro-1-hydroxy-1-methylethyl)quinoline-6-carboxamide], the concentration for half-maximal inhibition (IC50) was determined as 0.316 µM.

`CC[C@@H](NC(=O)c1ccc2cc(C(C)(C)C)ccc2n1)c1ccc2[nH]nnc2c1` [Example B2, N-[(1R)-1-(1H-1,2,3-benzotriazol-6-yl)propyl]-6-tert-butylquinoline-2-carboxamide]: the IC50 was determined as 0.158 µM.

Compound `CCC(NC(=O)c1ccc2nc(C(C)(C)C(F)(F)F)ccc2c1)c1ccnc2ccccc12` (stereo not shown) [Example C18, N-(1-quinolin-4-ylpropyl)-2-(2,2,2-trifluoro-1,1-dimethylethyl) quinoline-6-carboxamide] returned an IC50 of 0.136 µM.

On to `CC(C)(c1ccc2cc(C(=O)NCc3ccnc4c(F)cc(F)cc34)ccc2n1)C(F)(F)F` [Example C12, N-[(6,8-difluoroquinolin-4-yl)methyl]-2-(2,2,2-trifluoro-1,1-dimethylethyl)quinoline-6-carboxamide], for which the 50% inhibitory concentration (IC50) amounted to 0.266 µM.

As to `CC(C)(C)c1ccc2nc(C(=O)NCc3ccc4[nH]nnc4c3)ccc2c1` [Example B6, N-(1H-1,2,3-benzotriazol-5-ylmethyl)-6-tert-butylquinoline-2-carboxamide], the half-inhibitory concentration (IC50) amounted to 0.0187 µM. Compared with the last compound, the IC50 is about 14-fold lower.

For `C[C@@H](NC(=O)c1ccc2nc(C(C)(C)C(F)(F)F)ccc2c1)c1ccnc2ccccc12` (single isomer, unassigned) [Example C13], the IC50 is 0.0498 µM.

The compound `C[C@@H](NC(=O)c1ccc2cc(C(C)(C)C)ccc2n1)c1ccc2[nH]nnc2c1` [Example B1, N-[(1R)-1-(1H-1,2,3-benzotriazol-6-yl)ethyl]-6-tert-butylquinoline-2-carboxamide] displayed an IC50 of 0.00945 µM. Against the preceding compound, the IC50 is about 5.3-fold lower.

On to `CC(NC(=O)c1ccc2nc(C(C)(C)C)ccc2c1)c1ccc2c(c1)CC(=O)N2` (stereo not shown) [Example C3, 2-tert-butyl-N-[1-(2-oxo-2,3-dihydro-1H-indol-5-yl)ethyl] quinoline-6-carboxamide], for which the IC50 stood at 0.242 µM.

Take `Cc1cccc2c(CNC(=O)c3ccc4nc(C(C)(C)C(F)(F)F)ccc4c3)ccnc12` [Example C16, N-[(8-methylquinolin-4-yl)methyl]-2-(2,2,2-trifluoro-1,1-dimethylethyl)quinoline-6-carboxamide]: the half-inhibitory concentration (IC50) amounted to 0.437 µM.

`Cc1cc(CNC(=O)c2ccc3nc(C(C)(C)C(F)(F)F)ccc3c2)c2ccccc2n1` [Example C8, N-[(2-methylquinolin-4-yl)methyl]-2-(2,2,2-trifluoro-1,1-dimethylethyl)quinoline-6-carboxamide]: the IC50 amounted to 0.351 µM.

`O=C(NCc1ccnc2ccccc12)c1ccc2cc(C3CC3)ccc2c1` [Example A8, 6-cyclopropyl-N-(quinolin-4-ylmethyl)-2-naphthamide]: the IC50 is 0.41 µM.

The compound `CC(NC(=O)c1cnc2cc(C(C)(C)C)ccc2c1)c1ccnc2ccccc12` (stereo not shown) [Example D1, 7-tert-butyl-N-(1-quinolin-4-ylethyl)quinoline-3-carboxamide] displayed an IC50 of 0.246 µM.

Consider `CC(NC(=O)c1ccc2cc(C(C)(C)C)ccc2n1)c1ccnc2ccccc12` (stereo not shown) [Example B5, 6-tert-butyl-N-(1-quinolin-4-ylethyl)quinoline-2-carboxamide hydrochloride], for which the IC50 stood at 0.204 µM.

`COC(C)(c1ccc2cc(C(=O)NCc3ccnc4ccccc34)ccc2c1)C(F)(F)F` (stereo not shown) [Example A6, N-(quinolin-4-ylmethyl)-6-(1,1,1-trifluoro-2-methoxypropan-2-yl)-2-naphthamide] had a 50% inhibitory concentration (IC50) of 0.052 µM. Compared with the last compound, the IC50 is about 3.9-fold lower.

In the case of `CC(C)(c1ccc2cc(C(=O)NC(CO)c3ccnc4ccccc34)ccc2n1)C(F)(F)F` (stereo not shown) [Example C20, N-(2-hydroxy-1-quinolin-4-ylethyl)-2-(2,2,2-trifluoro-1,1-dimethylethyl)quinoline-6-carboxamide], the half-inhibitory concentration (IC50) was 0.57 µM.

Take `CC(C)(C)c1ccc2cc(C(=O)NCc3ccc4c(c3)CN=N4)ccc2c1` [Example A3, 6-tert-butyl-N-(3H-indazol-5-ylmethyl)-2-naphthamide]: the IC50 was 0.0616 µM.

With `Oc1cc2c(cc1O)CN(C(=S)NCCc1ccc(Cl)cc1)CCC2` [capsazepine, reference compound], the IC50 was 0.237 to 0.455 µM.

`C[C@@H](NC(=O)c1ccc2cc(C(C)(C)C)ccc2c1)c1ccc2nn[nH]c2c1` [Example A1, N-[(1R)-1-(1H-1,2,3-benzotriazol-6-yl)ethyl]-6-tert-butyl-2-naphthamide] displayed a half-maximal inhibitory concentration (IC50) of 0.0179 µM. This lies in the double-digit nanomolar range.

On to `C[C@@H](NC(=O)c1ccc2nc(C(C)(C)C)ccc2c1)c1ccc2[nH]c(=O)[nH]c2c1` [Example C2, 2-tert-butyl-N-[(1R)-1-(2-oxo-2,3-dihydro-1H-benzimidazol-6-yl)ethyl]quinoline-6-carboxamide], for which the concentration for half-maximal inhibition (IC50) stood at 0.142 µM.

As to `CC(C)(c1ccc2cc(C(=O)NCc3ccnc4ccc(F)cc34)ccc2n1)C(F)(F)F` [Example C11, N-[(6-fluoroquinolin-4-yl)methyl]-2-(2,2,2-trifluoro-1,1-dimethylethyl)quinoline-6-carboxamide], the IC50 came to 0.173 µM. This IC50 and that of the compound before are within 1.5-fold of each other.

Compound `C[C@@H](NC(=O)c1ccc2cc(C(C)(O)C(F)(F)F)ccc2c1)c1ccnc2ccccc12` (stereo partly drawn) [Example A9, N-[(1R)-1-quinolin-4-ylethyl]-6-(2,2,2-trifluoro-1-hydroxy-1-methylethyl)-2-naphthamide] gave an IC50 of 0.382 µM.

In general, IC50 refers to the midpoint of a concentration-inhibition curve.
